According to the METLIN SMRT retention time set (Domingo-Almenara et al. 2019):

Assay: gradient 5% acetonitrile 3 min, to 50% in 2 min, to 85% in 15 min, held 3 min, 100 µL/min
Conditions: column: Zorbax Extend-C18 2.1 x 50 mm; eluents: water / acetonitrile, 0.1% formic acid
Method in brief: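 Retention times come from adduct peaks that were picked computationally and then checked by hand. The standards, pure and pooled in mixtures of ~100 molecules, were run on a Zorbax Extend-C18 column (2.1 × 50 mm, 1.8 μm) at 100 μL/min with water and acetonitrile, each with 0.1% formic acid. Detection was by quadrupole time-of-flight mass spectrometry in positive and negative ionization mode, with a dead volume of 40 μL and a dwell volume of 900 μL.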

Row | RP-LC retention time | SMILES
1 | 602 s | CN1CCCC1c1nc(C2CN(S(=O)(=O)c3ccc(C#N)cc3)C2)no1 (stereo not given)
2 | 1100 s | O=S(=O)(c1ccc(-c2noc(-c3ccccc3Cl)n2)cc1)N1CCOCC1
3 | 706 s | CC(C)CC(=O)N1CC(c2nc(-c3cccnc3)no2)C2(CCOCC2)C1 (stereo not given)
4 | 691 s | CS(=O)(=O)N1CCC(CNC(=O)CSCc2ccccc2)CC1
5 | 1050 s | O=S(=O)(NCc1ccco1)c1cccc(-c2nc(-c3ccccc3)no2)c1
6 | 1310 s | CCCOc1nc2ccccc2nc1N1CCCC(C(=O)NC2CCCCC2C)C1 (stereo not given)
7 | 715 s | Cn1nc(-c2ccncc2)nc1C1CN(S(=O)(=O)c2cccc(C(F)(F)F)c2)C1
8 | 734 s | COc1ccc(CNC(=O)N2CCC3(C2)C(=O)N(C)c2ccccc23)cc1 (stereo not given)
9 | 579 s | OCC1CN(c2ncccn2)CC12CCN(Cc1c[nH]c3ccccc13)CC2 (stereo not given)
10 | 760 s | O=C(NCC1COc2ccccc2O1)c1cc(-c2cccnc2)nc2ccccc12 (stereo not given)
11 | 732 s | COc1ccccc1CNC(=O)CN1CCN(Cc2ccc(F)cc2)C(=O)C1=O
12 | 626 s | CN1CCC(NC(=O)c2ccc3c(c2)N(S(=O)(=O)c2ccccc2F)CC3)CC1
13 | 975 s | Cn1cc2c3c(cccc31)CN(C(=O)c1ccccc1Cl)CC2
14 | 664 s | O=C(NCCc1cccnc1)C1CN(S(=O)(=O)c2ccccc2)CC12CCCCC2 (stereo not given)
15 | 690 s | Cc1ccc(C)n1-c1c(C(=O)N2CCN(c3ccccn3)CC2)sc2ncccc12
16 | 860 s | Cc1[nH]c(C(=O)N2CCCC(C(=O)NCc3ccccc3)C2)c(C)c1C(=O)OC(C)C (stereo not given)
17 | 1060 s | O=C(Nc1nccs1)C1CCCN(S(=O)(=O)c2cc(-c3noc(C4CCCC4)n3)cs2)C1 (stereo not given)
18 | 560 s | CN(CCCNC(=O)C1CCc2nc(N3CCCC3)ncc2C1)c1ccccc1 (stereo not given)
19 | 757 s | CN[C@@H](C)C(=O)N[C@H]1CN(C(=O)CC(C)C)CC[C@H]2CC[C@@H](C(=O)NC(c3ccccc3)c3ccccc3)N2C1=O
20 | 616 s | COc1cc2c(cc1OC)C(C(=O)NCc1ccccn1)C1c3ccccc3CCN1C2=O (stereo not given)
21 | 634 s | CNC(=O)C1CCCN(c2nc3ncn(CC(=O)Nc4ccccc4F)c(=O)c3s2)C1 (stereo not given)
22 | 794 s | Cc1cccc(CNC(=O)C2CCN(S(=O)(=O)c3ccc4c(c3)NC(=O)CO4)CC2)c1
23 | 655 s | Cc1nn2c(CNC(=O)c3cccnc3)c(-c3ccccc3)nc2s1
24 | 780 s | O=C(c1ccccc1)N1CCC(n2nc(-c3ccsc3)ccc2=O)CC1
25 | 886 s | COc1ccccc1NS(=O)(=O)c1cn(C(C)C)c2ncccc12
26 | 917 s | O=C(NC1CCCCCC1)c1nc(Nc2ccccc2)c2ccccc2n1
27 | 727 s | CN1C(=O)CC[C@]2(CNC(=O)COc3cccc(Cl)c3)CCC[C@@H]12
28 | 830 s | O=C(CSc1ncnc2c1nnn2Cc1ccccc1)Nc1ccc2c(c1)OCCO2

Continued, compound first:

Row | SMILES | RP-LC retention time
29 | O=C(c1ccc2ncnc(N3CCCC3)c2c1)N1CCCCC1 | 577 s
30 | CCN1CCCn2cc(S(=O)(=O)Nc3cc(C)ccc3C)cc2C1=O | 756 s
31 | CC1CCN(C(=O)c2cc3c(s2)CCC(C(=O)O)C3)CC1 (stereo not given) | 580 s
32 | Cc1nc(-c2csc(S(=O)(=O)N3CCC(C(=O)NC4CCCCCCC4)CC3)c2)no1 | 995 s
33 | Cc1ccc(-c2csc(NC(=O)Cc3csc(-c4ccccc4)n3)n2)cc1 | 1210 s
34 | CCOC(=O)c1noc2ncnc(N3CCN(c4ccc(OC)cc4)CC3)c12 | 955 s
35 | COCc1cc(=O)n(CC(=O)Nc2cc(F)ccc2F)c(N2CCOCC2)n1 | 838 s
36 | CC(C)C(=O)Nc1nc(-c2cccc3ccccc23)cs1 | 1020 s
37 | O=C(C1CCN(c2nc3ccc(-c4cccs4)nc3s2)CC1)N1CCOCC1 | 826 s
38 | CC(C)(CO)NC(=O)Cc1ccc(NC(=O)CSc2ccc(F)cc2)cc1 | 681 s
39 | CCn1ccc(C(=O)NCC2Cn3cccc3C(=O)N2CC(C)C)n1 (stereo not given) | 680 s
40 | Cc1cc(N2CCN(C)CC2)nc2ccc(NC(=O)Nc3ccccc3Cl)cc12 | 604 s
41 | COc1cc(NC(=O)N2CC(c3nc(C(C)C)nn3C)C2)cc(OC)c1 | 662 s
42 | COc1ccccc1-c1nc(C2CCN(C(=O)C3COc4ccccc4O3)CC2)no1 (stereo not given) | 962 s
43 | O=c1c2ccccc2n(Cc2nc(-c3cccc(Cl)c3)no2)c(=O)n1CC1CCCO1 (stereo not given) | 1110 s
44 | Fc1cc(F)c2c(c1)C1C=CCC1C(c1cccnc1)N2 (stereo not given) | 706 s
45 | COc1ccc(-c2noc(-c3ccc(NCCCN4CCCC4)nn3)n2)cc1 | 642 s
46 | CN1C2CC(OC(=O)C(CO)c3ccccc3)CC1C(O)C2 (stereo not given) | 586 s
47 | O=C(O)CCc1csc(NC(=O)Nc2ccc(Cl)cc2)n1 | 717 s
48 | Clc1cccc(-c2nnc(Cc3nc(-c4ccc5c(c4)OCO5)no3)o2)c1 | 1020 s
49 | COc1cccc(C2Cn3nnc(-c4nc(-c5ccccc5Br)no4)c3CO2)c1 (stereo not given) | 1170 s

Row | SMILES | RP-LC retention time
50 | CCNc1nc(-c2ccccc2F)no1 | 761 s
51 | Cc1noc(C)c1CC(=O)NCC1Cn2cccc2C(=O)N1CC(C)C (stereo not given) | 664 s
52 | Cc1ccn2c(C(C)O)nnc2c1 (stereo not given) | 574 s
53 | O=C(Nc1c(C(=O)N2CCN(c3ccccn3)CC2)oc2ccccc12)c1ccc([N+](=O)[O-])cc1 | 757 s
54 | COc1cc(C(=O)N2CCN(c3cc(C(C)C)n4cnnc4n3)CC2)cc(OC)c1OC | 613 s
55 | Cc1ccc2c(c1)N(S(C)(=O)=O)CCC(C(=O)Nc1ccc(Cl)cc1C)O2 (stereo not given) | 1000 s
56 | COc1nn(C)cc1C(=O)Nc1ccc(-c2cn3ccsc3n2)cc1 | 575 s
57 | COc1ccccc1-c1c(C)nn2c(N3CCN(c4ccccn4)CC3)cc(C)nc12 | 604 s
58 | CCc1nnc2nc(N3CCN(C(=O)c4ccc(N(C)C)cc4)CC3)cc(C)n12 | 609 s
59 | CN1C(=O)c2cc(S(=O)(=O)Nc3ccc(F)cc3Cl)ccc2Oc2cccnc21 | 943 s
60 | CCCN(CCC)CCc1ccc(O)c(O)c1 | 602 s
61 | O=C(Nc1cccc2ccc(-n3ccnc3)nc12)c1ccccc1C(F)(F)F | 638 s
62 | Cc1cc(C(=O)NCCN2CCOCC2)nc2cc(-c3ccccn3)nn12 | 693 s
63 | O=C(Nc1ccc(Cl)cc1)c1cn2c(n1)CCCC2 | 640 s
64 | CCOC(=O)c1nc(N(C)c2cccc(C)c2)c2ccccc2n1 | 982 s
65 | CCCn1cc(CCNS(=O)(=O)Cc2cc(C)ccc2C)c2cccnc21 | 946 s
66 | CC(=O)c1ccc(NC(=O)CCc2c(C)nn(-c3cc(N4CCCC4)ncn3)c2C)cc1 | 769 s
67 | Cc1ccc(Nc2c(-c3ccc(C)cc3)nc3ccc(C)cn23)cc1 | 797 s
68 | COc1ccc2nc(C(=O)NC(C)c3ccccc3)cn2n1 (stereo not given) | 803 s
69 | COc1cccc(Cn2c(=O)c3sccc3n(Cc3nc(-c4ccc(Cl)c(F)c4)no3)c2=O)c1 | 1180 s
70 | Cn1c(N2CCN(C(=O)c3ccc4c(c3)OCO4)CC2)cc(=O)n(C)c1=O | 637 s

Row | SMILES | RP-LC retention time
71 | CC(C)CC(=O)N1CCC(COc2ccc(C(=O)NC3CC3)cc2)CC1 | 758 s
72 | Cc1cccc(NC(=O)N2CCc3c(c(-c4nnc(-c5ccc(F)cc5)o4)nn3C)C2)c1C | 854 s
73 | CCN1CCN(C(=O)Cc2c(C)nn(-c3nc(-c4ccc(C)cc4)cs3)c2C)CC1 | 730 s
74 | O=C(NCc1ccc(F)c(Cl)c1)c1cn2c(n1)COCC2 | 690 s
75 | Cc1cc(C(=O)NCC2CCN(C(=O)NC(C)(C)C)CC2)c(C)o1 | 699 s
76 | Cc1cc(NC(=O)Cc2csc(NC(=O)c3ncccn3)n2)no1 | 591 s
77 | Cc1ccc(C(=O)N2CC(c3nc(CCOCC4CC4)no3)C2)s1 | 806 s
78 | COc1cccc(-c2noc(CN3C(=O)COc4ccccc43)n2)c1 | 981 s
79 | CCOC(=O)c1c(C)oc2nc(C)nc(NCc3ccc(CC)cc3)c12 | 1370 s
80 | Cc1ccc2nc(-c3c(F)cccc3Cl)c(Nc3ccc4c(c3)OCCO4)n2c1 | 692 s
81 | Nc1ncnc(Nc2ccccc2Cl)c1[N+](=O)[O-] | 777 s
82 | CCCC(NC(=O)CCc1c(-c2ccc(Cl)cc2)nc2ccccn12)c1cccs1 (stereo not given) | 767 s
83 | CCOC(=O)c1cc(C)nc2c1c(=O)n(Cc1ccccc1C)c(=O)n2C | 872 s
84 | COC(=O)c1ccc(CSc2ccc(NC(=O)c3cccs3)nn2)o1 | 820 s
85 | COc1ccc(-c2nc(N3CCC4(CC3)OCCO4)c3ccccc3n2)cc1 | 726 s
86 | COC1C(=O)N(CC2CC2)C12CCN(C(=O)C(C)C)CC2 (stereo not given) | 686 s
87 | CCOC(=O)c1cn(CC(=O)Nc2cc(F)ccc2F)nn1 | 740 s
88 | COc1cc(O)ccc1-c1nc2cc(C)ccn2c1Nc1ccccc1C | 673 s
89 | COC(=O)c1ccc(NC(=O)C(=O)NCCOc2ccc(F)cc2)cc1 | 870 s
90 | COC(=O)c1ccc(C(=O)Nc2ccncc2NC(=O)c2ccc(C(=O)OC)cc2)cc1 | 646 s
